The values below come from publication PMC4368482 (Nature, 2014).

The target in this experiment is T1, tyrosyl tRNA synthetase (TyrRS) (Homo sapiens, UniProt P54577).
T1 sequence (P54577 1-528): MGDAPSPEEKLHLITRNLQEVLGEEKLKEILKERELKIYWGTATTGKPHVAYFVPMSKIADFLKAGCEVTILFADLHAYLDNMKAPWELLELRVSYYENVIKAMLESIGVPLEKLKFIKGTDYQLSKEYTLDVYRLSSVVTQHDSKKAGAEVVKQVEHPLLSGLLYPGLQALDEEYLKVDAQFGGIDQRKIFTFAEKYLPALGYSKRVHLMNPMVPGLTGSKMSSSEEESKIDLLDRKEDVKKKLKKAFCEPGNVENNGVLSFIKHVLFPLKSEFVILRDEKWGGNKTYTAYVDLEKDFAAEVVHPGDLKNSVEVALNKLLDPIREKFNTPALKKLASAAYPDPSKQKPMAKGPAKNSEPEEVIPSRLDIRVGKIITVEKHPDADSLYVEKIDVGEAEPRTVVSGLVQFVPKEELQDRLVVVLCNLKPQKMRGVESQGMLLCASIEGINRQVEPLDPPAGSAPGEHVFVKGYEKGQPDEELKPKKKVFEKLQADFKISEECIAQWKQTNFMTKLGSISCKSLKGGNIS
Nature of the experiment: X-ray co-crystal structure. Format: biochemical.

One may read the Ki as a measure of affinity in units of concentration, obtained from inhibition or displacement.

The structures appear in SMILES notation.

`Oc1ccc(/C=C/c2cc(O)cc(O)c2)cc1` [RSV, resveratrol] gave a Ki of 22 µM.
